From ChEMBL document CHEMBL1152766, “Bioactive constituents from the leaves of Clinacanthus nutans Lindau” (Bioorg Med Chem, 2009)

How the values were obtained:
Human alphaherpesvirus 1 [1] = test: Antiviral activity against 1000 PFU/ml infectious dose of HSV1 strain F infected in african green monkey Vero cells assessed as inhibition of virus in pre-viral entry step at 6.21 uM after 72 hrs by plaque reduction assay; assay type: functional; design: scale not given: the % may be the effect or the level left
[2] = Cytotoxicity against african green monkey Vero cells after 72 hrs; assay type: cell-based; details: chlorocebus sabaeus, read-out: MNCC
Human alphaherpesvirus 1 [3] = test: Antiviral activity against 1000 PFU/ml infectious dose of HSV1 strain F infected in african green monkey Vero cells after 72 hrs by plaque reduction assay; assay type: functional, organism-based; details: Human alphaherpesvirus 1, strain F
Human alphaherpesvirus 1 [4] = test: Antiviral activity against 1000 PFU/ml infectious dose of HSV1 strain F infected in african green monkey Vero cells assessed as inhibition of virus in post-viral entry step at 6.21 uM after 72 hrs by plaque reduction assay; assay type: functional; design: scale not given: the % may be the effect or the level left
Human alphaherpesvirus 1 [5] = test: Antiviral activity against 1000 PFU/ml infectious dose of HSV1 strain F infected in african green monkey Vero cells assessed as inhibition of virus in post-viral entry step at 5.89 uM after 72 hrs by plaque reduction assay; assay type: functional; design: scale not given: the % may be the effect or the level left
Human alphaherpesvirus 1 [6] = test: Antiviral activity against 1000 PFU/ml infectious dose of HSV1 strain F infected in african green monkey Vero cells assessed as inhibition of virus in pre-viral entry step at 5.89 uM after 72 hrs by plaque reduction assay; assay type: functional; design: scale not given: the % may be the effect or the level left

`C=Cc1c(C)c2cc3nc(c4c5[nH]c(cc6nc(cc1[nH]2)C(C)=C6CC)c(C)c5C(=O)[C@]4(O)C(=O)OC)[C@@H](CCC(=O)O/C=C(\C)CCCC(C)CCCC(C)CCCC(C)C)[C@@H]3C` (some centres not stated) showed an Activity (Human alphaherpesvirus 1 [1]) of 100%, an MNTC at 72 h [2] of 6.21 µM and an IC50 (Human alphaherpesvirus 1 [3]) of 3.11 nM. The Activity (Human alphaherpesvirus 1 [4]) was 30%.
Work on `C=Cc1c(C)c2cc3nc(c4c5[nH]c(cc6nc(cc1[nH]2)C(C)=C6CC)c(C)c5C(=O)[C@@]4(O)C(=O)OC)[C@@H](CCC(=O)O/C=C(\C)CCCC(C)CCCC(C)CCCC(C)C)[C@@H]3C` (some centres not stated) yielded an Activity (Human alphaherpesvirus 1 [1]) of 100%, an MNTC at 72 h [2] of 6.21 µM and an IC50 (Human alphaherpesvirus 1 [3]) of 3.11 nM. The Activity (Human alphaherpesvirus 1 [4]) was 30%.
Work on `C=Cc1c(C)c2cc3nc(c4c5[nH]c(cc6nc(cc1[nH]2)C(C=O)=C6CC)c(C)c5C(=O)[C@@]4(O)C(=O)OC)[C@@H](CCC(=O)O/C=C(\C)CCCC(C)CCCC(C)CCCC(C)C)[C@@H]3C` (some centres not stated) [13(2)-HYDROXY-(13(2)-R)-PHAEOPHYTIN B] yielded an Activity (Human alphaherpesvirus 1 [5]) of 30%, an Activity (Human alphaherpesvirus 1 [6]) of 100% and an MNTC at 72 h [2] of 5.89 µM. For the same molecule, the IC50 (Human alphaherpesvirus 1 [3]) was 1.96 nM.
